Publication PMC11511367, “Antiproliferative Effects of Naja anchietae and Naja senegalensis Venom Peptides on Glioblastoma Cell Lines” (Toxins, 2024)
Bridges are numbered along the chain shown (N, C = ends). Where no end group is shown, it is not given here.

Assays:
Assay type in all cases: cell-based
MCF-7 cells = assay: MTT antiproliferative assay on MCF-7 cells (venom screening and isolated peptides); conditions: MCF7 cells, 72 h, 4 µg and 20 µg of peptide
Protocol: We screened nearly 40 different animal venoms to evaluate their potential anticancer properties. The venoms were solubilized at a concentration of 1.5 mg/mL in water. The antiproliferative activity of these venoms was tested at two concentrations, 3 µg and 15 µg, against MCF-7 cells (Appendix A, Figure A1).
Figure A1 Antiproliferative activity of different animal venoms. […] The OD was measured at 570 nm after 72 h of treatment. The abbreviations include Na: Naja anchietae; Vg: Viridovipera gumprechti; Vk: Vipera kaznakovi; Tv: Trimeresurus vogeli; Tt: Trimeresurus trigonocephalus; Ach: Atheris chlorechis; Ath ni: Atheris nitschei nitschei; Nox: Naja oxiana; Np: Naja philippinensis; At sq: Atheris squamigera; Nhl: Naja haje legionis; Por Oph: Porthidium ophryomegas; Ph: Parias hageni; Ns: Naja senegalensis.
Figure A2 Antiproliferative activity of CTNsen1, CTNsen2, CTNsen3, CTNanc1, CTNanc2, and CTNanc3 from Naja senegalensis (b) and Naja anchietae (a), respectively. […] Na and Ns here were used as a positive control at two concentrations (3 µg and 15 µg). The OD was measured at 570 nm.

T98G glioblastoma cells = assay: MTT antiproliferative assay on T98G cells; conditions: Brain glioblastoma T98G, 72 h, 1 × 10^−7 to 1 × 10^−4 Molar, OD 570 nm, three-parameter log-logistic fit
Description: (§1) The purified peptides, named CTNsen1, CTNsen2, CTNsen3, CTNanc1, CTNanc2, and CTNanc3 from Naja senegalensis and Naja anchietae respectively, were subsequently tested for their antiproliferative effects on several glioblastoma cell lines (U87, U251, and T98G) as well as on primary human umbilical vein endothelial cells (HUVECs). A series of increasing concentrations (1 × 10^−⁷, 0.5 × 10^−6, 1 × 10^−⁶, 0.5 × 10^−5, 1 × 10^−⁵, 0.5 × 10^−4, and 1 × 10^−⁴ Molar) were used. The dose-response curves for each peptide are depicted in Figure 9, Figure 10, Figure 11 and Figure 12.
Figure 11 Antiproliferative activity of CTNsen1 (a), CTNsen2 (b), CTNsen3 (c), CTNanc1 (d), CTNanc2 (e), and CTNanc3 (f) from Naja senegalensis and Naja anchietae, respectively. […] The OD was measured at 570 nm.
(§2) U87 and T98G were plated at a density of 4000 cells per well and U251 cells at a density of 2500 cells per well in microtiter plates and allowed to adhere overnight at 37 °C in a 5% CO2 humidified environment. The following day, the medium was replaced with fresh medium containing our venom peptides under investigation. After a 72-h incubation period, cells were treated with MTT (Promega, Lyon, France) at a concentration of 0.5 mg/mL. […] Viable cells were then quantified by measuring the absorbance at 570 nm. […] Model calibration was assessed using the drm() function. […]

U251 glioblastoma cells = assay: MTT antiproliferative assay on U251 cells; conditions: Brain glioblastoma U251, MTT, 72 h, 1 × 10^−7 to 1 × 10^−4 Molar, OD 570 nm; three-parameter log-logistic fit
Description: as §1
Figure 10 Antiproliferative activity of CTNsen1 (a), CTNsen2 (b), CTNsen3 (c), CTNanc1 (d), CTNanc2 (e), and CTNanc3 (f) from Naja senegalensis and Naja anchietae respectively. […] The OD was measured at 570 nm.
as §2

LKCHQLVPPFWKTCPEGKNLCYKMYMVSSSTVPVKRGCIDVCPKNSALVKYVCCNTDKCN (disulfide 3-21, 14-38, 42-53, 54-59) [CTNsen1]
Antiproliferative activity of isolated peptides (MCF-7 cells): activity was confirmed
IC50 (μg/mL), T98G (T98G glioblastoma cells): Inactive
IC50 (μg/mL), U251 (U251 glioblastoma cells): Inactive
